Molecular target: T1, KIAA0664 Clustered mitochondria protein homolog (Homo sapiens, UniProt O75153)
T1 construct: Cells were resuspended in cold PBS on ice and sonicated with a probe sonicator to achieve lysis; endogenous in cells
T1 sequence (O75153 1-1309): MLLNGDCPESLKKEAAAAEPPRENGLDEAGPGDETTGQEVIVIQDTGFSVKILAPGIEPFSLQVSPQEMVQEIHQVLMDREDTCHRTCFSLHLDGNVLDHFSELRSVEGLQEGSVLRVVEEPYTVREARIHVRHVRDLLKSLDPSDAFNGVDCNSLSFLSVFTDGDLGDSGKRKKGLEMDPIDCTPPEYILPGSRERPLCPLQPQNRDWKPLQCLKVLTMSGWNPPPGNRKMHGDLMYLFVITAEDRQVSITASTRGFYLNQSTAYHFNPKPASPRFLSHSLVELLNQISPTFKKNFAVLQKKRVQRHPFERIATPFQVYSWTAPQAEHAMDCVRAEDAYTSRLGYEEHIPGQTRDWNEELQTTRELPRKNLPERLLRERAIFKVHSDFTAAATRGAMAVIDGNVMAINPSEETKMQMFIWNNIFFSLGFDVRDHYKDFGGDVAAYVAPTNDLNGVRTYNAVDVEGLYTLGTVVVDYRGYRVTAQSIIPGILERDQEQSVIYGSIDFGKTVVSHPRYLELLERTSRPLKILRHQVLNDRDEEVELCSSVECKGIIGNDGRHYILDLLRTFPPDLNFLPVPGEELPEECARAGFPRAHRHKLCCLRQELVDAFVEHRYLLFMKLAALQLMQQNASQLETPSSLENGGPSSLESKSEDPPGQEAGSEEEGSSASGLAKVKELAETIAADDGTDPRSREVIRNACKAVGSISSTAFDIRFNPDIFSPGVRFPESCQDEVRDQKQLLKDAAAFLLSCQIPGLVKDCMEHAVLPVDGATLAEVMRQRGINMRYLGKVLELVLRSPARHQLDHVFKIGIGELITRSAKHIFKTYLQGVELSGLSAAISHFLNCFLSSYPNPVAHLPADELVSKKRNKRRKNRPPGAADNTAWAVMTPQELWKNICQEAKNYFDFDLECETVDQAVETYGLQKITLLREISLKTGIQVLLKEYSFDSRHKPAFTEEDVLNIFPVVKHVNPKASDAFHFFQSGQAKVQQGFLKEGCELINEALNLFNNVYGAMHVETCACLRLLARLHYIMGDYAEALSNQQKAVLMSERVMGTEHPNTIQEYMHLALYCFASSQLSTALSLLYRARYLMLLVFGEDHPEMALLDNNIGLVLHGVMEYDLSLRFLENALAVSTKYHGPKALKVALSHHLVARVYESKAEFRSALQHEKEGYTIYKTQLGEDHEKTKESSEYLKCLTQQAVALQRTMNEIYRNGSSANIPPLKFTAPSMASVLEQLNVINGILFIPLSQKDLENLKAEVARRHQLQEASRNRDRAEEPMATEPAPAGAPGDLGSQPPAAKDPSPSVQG
Assay: Cysteine liganding, probe competition
Type: binding
Summary of the method: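 Steps: sonicate cells in cold PBS; treat 5 mg/ml lysate with compound (25° C, 1 hr); add desthiobiotin iodoacetamide probe from a 10 mM stock (25° C, 1 hr); precipitate, reduce, alkylate, digest with trypsin; capture labelled peptides on streptavidin for analysis.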

Row | SMILES | 100 Max (uniprot O75153) | 100 ave (uniprot O75153) | 500 ave (uniprot O75153) | 500 Max (uniprot O75153, in % (unit assumed)) | Liganded (KIAA0664 Res# 333, uniprot O75153)
1 | O=C(CCl)Nc1cc(C(F)(F)F)cc(C(F)(F)F)c1 [KBO3] | 23.11 | 9.323 | 51.405 | 73.65 | 
2 | COc1ccc2c(c1)CCCN2C(=O)CCl [KB02] |  |  |  |  | YES
